We go through twelve molecules from publication PMC10909772 (Saudi Pharmaceutical Journal : SPJ, 2024).

In assay [1] the target is T1, xanthine oxidase (Bos taurus, UniProt P80457). The following applies: cited from earlier work; for inhibition of the xanthine oxidase enzyme (in words): ref Mostafa et al., 2007.
The target in assay [2] is T1, xanthine oxidase. The experiment in a line: Kinetics of xanthine oxidase inhibition. It is filed as biochemical. The following applies: Lineweaver-Burk double reciprocal plots, xanthine as substrate.
Assay [3] deals with T1, xanthine oxidase. Nature of the assay: Xanthine oxidase inhibitory assay. It is filed as biochemical.

As a reminder, the Ki is the equilibrium dissociation constant of an inhibitor or competing ligand from its target. Broadly, the IC50 is the concentration that inhibits the measured activity by half.

Where two headings read alike, the source gives them in different places.

T1 sequence (P80457 whole entry): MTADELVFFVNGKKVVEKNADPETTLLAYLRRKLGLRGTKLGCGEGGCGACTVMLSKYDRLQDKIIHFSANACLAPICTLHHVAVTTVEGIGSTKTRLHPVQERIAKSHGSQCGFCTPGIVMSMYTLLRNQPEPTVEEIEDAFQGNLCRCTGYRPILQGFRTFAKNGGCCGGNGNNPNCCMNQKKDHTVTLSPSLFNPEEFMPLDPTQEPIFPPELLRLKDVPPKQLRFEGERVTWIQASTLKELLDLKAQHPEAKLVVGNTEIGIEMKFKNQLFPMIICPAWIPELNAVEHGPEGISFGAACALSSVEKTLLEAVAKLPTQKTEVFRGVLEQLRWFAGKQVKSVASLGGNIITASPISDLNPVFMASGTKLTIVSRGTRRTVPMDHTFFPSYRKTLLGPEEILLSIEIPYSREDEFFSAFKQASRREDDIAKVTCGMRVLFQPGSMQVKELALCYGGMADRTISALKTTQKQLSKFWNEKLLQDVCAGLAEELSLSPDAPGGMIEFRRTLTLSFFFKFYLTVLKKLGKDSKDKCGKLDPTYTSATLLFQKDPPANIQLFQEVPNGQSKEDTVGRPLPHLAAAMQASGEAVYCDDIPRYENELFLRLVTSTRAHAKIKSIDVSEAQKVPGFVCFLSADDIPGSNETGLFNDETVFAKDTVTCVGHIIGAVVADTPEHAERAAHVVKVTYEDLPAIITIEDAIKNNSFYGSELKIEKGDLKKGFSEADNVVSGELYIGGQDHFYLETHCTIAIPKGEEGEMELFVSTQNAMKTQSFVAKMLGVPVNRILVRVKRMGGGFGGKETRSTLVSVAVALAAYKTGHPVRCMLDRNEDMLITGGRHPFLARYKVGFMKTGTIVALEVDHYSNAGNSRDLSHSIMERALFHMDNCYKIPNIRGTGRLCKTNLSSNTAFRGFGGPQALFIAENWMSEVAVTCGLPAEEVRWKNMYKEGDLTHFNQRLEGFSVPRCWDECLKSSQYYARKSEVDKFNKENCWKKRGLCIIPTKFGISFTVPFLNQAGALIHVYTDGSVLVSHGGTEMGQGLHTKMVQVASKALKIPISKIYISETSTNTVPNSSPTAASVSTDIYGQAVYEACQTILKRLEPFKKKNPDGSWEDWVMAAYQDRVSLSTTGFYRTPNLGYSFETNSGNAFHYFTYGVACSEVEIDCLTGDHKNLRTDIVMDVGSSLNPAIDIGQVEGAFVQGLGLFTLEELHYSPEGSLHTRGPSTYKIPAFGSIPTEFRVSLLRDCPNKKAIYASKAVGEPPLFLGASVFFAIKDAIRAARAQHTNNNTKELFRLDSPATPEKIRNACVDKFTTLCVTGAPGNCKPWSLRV

As for `O=c1c(O)c(-c2ccc(O)c(O)c2)oc2cc(O)cc(O)c12` [quercetin], the type of inhibition entry in assay [1] (ref Lin et al., 2002) is given as “competitive”.

As for `O=c1cc(-c2ccc(O)c(O)c2)oc2cc(O)cc(O)c12` [luteolin], the Ki in assay [1] (read-out: inhibition constant (Ki), ref Yan et al., 2013) was 2.38 µM. In addition, in assay [1] (ref Yan et al., 2013), the IC50 was 4.79 µM and the type of inhibition entry is recorded as “competitive”.

For the molecule `O=c1c(-c2ccc(O)cc2)coc2cc(O)cc(O)c12` [genistein], the type of inhibition result in assay [1] (ref Lin et al., 2002) is listed as “competitive”.

Consider `O=c1cc(-c2ccc(O)cc2)oc2cc(O)cc(O)c12` [apigenin], for which, in assay [1] (ref Lin et al., 2002), the type of inhibition entry is “competitive”.

`Oc1ncnc2[nH]ncc12` [Allopurinol]: in assay [2], the “type of inhibition” value is reported as “competitive”.

`O=c1c(O)c(-c2cc(O)c(O)c(O)c2)oc2cc(O)cc(O)c12` [myricetin]: the type of inhibition result in assay [1] (ref Lin et al., 2002) is recorded as “competitive”.

For `COc1ccc(CCO[C@@H]2O[C@H](CO)[C@@H](OC(=O)/C=C/c3ccc(O)c(OC)c3)[C@H](O[C@@H]3O[C@@H](C)[C@H](O)[C@@H](O)[C@H]3O[C@@H]3O[C@H](CO)[C@@H](O)[C@H](O)[C@H]3O)[C@H]2O)cc1O` [incanoside D], the “inhibition of the xanthine oxidase enzyme (in words)” value in assay [1] was “moderate inhibitors”.

On to `COC(=O)/C=C/c1ccc(O)c(O)c1` [methyl caffeate], for which, in assay [1] (ref Nguyen et al., 2006), the IC50 was 12.3 µM and the inhibition type result is recorded as “competitive”.

Take `COc1ccc(/C=C/C(=O)O)cc1` [Compound 3, trans-4-methoxycinnamic acid]: the “type of inhibition” value in assay [2] is given as “competitive”. The same molecule registered an IC50 in assay [3] of 26.3 ± 3.36 µM.

Regarding `COc1ccc(CCO[C@@H]2O[C@H](CO[C@@H]3OC[C@H](O)[C@H](O)[C@H]3O)[C@@H](OC(=O)/C=C/c3ccc(O)c(OC)c3)[C@H](O[C@@H]3O[C@@H](C)[C@H](O)[C@@H](O)[C@H]3O)[C@H]2O)cc1O` [angoroside C], in assay [1], the “inhibition of the xanthine oxidase enzyme (in words)” value is listed as “moderate inhibitors”.

`O=C(O)/C=C/c1ccc(O)c(O)c1` [caffeic acid]: in assay [1] (ref Nguyen et al., 2006), the IC50 is 85.4 µM and the inhibition type result is reported as “competitive”.

As for `O=C(O)/C=C/c1ccc(O)cc1` [Compound 5, p-coumaric acid], the “type of inhibition” value in assay [2] is given as “competitive”. Inhibition in assay [3] was half-maximal at 23.3 ± 1.88 µM (IC50).
